Results on 1 compound are retold here after publication PMC9133036 (Nature Communications, 2022).

“And” between values parts separate entries of the source, which are not always exact repeats. Equal values may be shown once. Read-outs that look alike come from different tables or passages of the source.

Format in all cases: cell-based
The target in experiment [1] is T1, OX2R T111S/T135A (Homo sapiens, UniProt O43614, T111S/T135A).
T1 construct: FLAG; expressed in transfected cells; host or cells: HEK293
T1 sequence (O43614 1-444 T111S/T135A): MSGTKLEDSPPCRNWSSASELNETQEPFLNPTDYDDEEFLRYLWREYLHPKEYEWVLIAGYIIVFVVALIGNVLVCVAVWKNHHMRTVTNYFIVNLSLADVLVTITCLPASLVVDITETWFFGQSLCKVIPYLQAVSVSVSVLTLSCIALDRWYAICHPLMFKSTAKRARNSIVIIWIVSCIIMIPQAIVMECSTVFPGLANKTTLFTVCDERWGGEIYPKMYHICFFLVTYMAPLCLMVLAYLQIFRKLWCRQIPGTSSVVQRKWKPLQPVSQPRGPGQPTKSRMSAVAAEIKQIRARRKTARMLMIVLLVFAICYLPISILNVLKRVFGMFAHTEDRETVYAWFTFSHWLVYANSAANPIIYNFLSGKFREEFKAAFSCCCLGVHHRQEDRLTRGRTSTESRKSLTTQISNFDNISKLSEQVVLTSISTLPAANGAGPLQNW
As to the kind of experiment: IP accumulation assay, OX2R T111S/T135A. The note with it: for EC50: IP accumulation. The text has this:
(§1) The IP assay was adapted from a prior precedent. HEK293 cells were maintained in DMEM-high glucose (Millipore Sigma) supplemented with 5% fetal bovine serum (Corning) and penicillin-streptomycin (Millipore Sigma). Receptor constructs used were the full-length wild-type (or mutant) human OX1R and OX2R sequences cloned into pCDNA3. To enhance the Emax in the IP assay, a plasmid encoding full-length human Gαq subunit[66] was co-transfected into HEK293 cells with plasmids encoding orexin receptor constructs using Lipofectamine 3000 (Thermo Fisher). 24 h after transfection, the cells were plated on poly-D-lysine coated (Millipore Sigma) tissue culture-treated 96 well white plates with clear bottoms (Perkin Elmer) at 30,000 cells per well in Inositol-free DMEM (MP Biomedicals) supplemented with 5% fetal bovine serum, 4 mM L-glutamine (Millipore Sigma), penicillin-streptomycin, and about 5 uCi (5 ul) per ml myo-[2-3H] inositol (Perkin Elmer). The following day, the media was replaced with agonists that were diluted in HBSS (Millipore Sigma) containing 10 mM lithium chloride (Millipore Sigma) and incubated at 37 °C for 45 min. Then agonists were removed and cells were lysed on ice for 30 min with 10 mM formic acid (Millipore Sigma). 1.25 mg of poly-lysine coated YSI SPA beads (Perkin Elmer) was added to each well. The plates were mixed on an orbital shaker for 30 min. The plates were read on a MicroBeta scintillation counter (Perkin Elmer) the following day. IP accumulation assays on different constructs were performed in n ≥ 3 independent experiments (each done in duplicate), where n is shown in Supplementary Table 2.

The target of experiment [2] is T2, OX1R A127T (Homo sapiens, UniProt O43613, A127T).
T2 construct: FLAG; expressed in transfected cells; host or cells: HEK293
T2 sequence (O43613 1-425 A127T): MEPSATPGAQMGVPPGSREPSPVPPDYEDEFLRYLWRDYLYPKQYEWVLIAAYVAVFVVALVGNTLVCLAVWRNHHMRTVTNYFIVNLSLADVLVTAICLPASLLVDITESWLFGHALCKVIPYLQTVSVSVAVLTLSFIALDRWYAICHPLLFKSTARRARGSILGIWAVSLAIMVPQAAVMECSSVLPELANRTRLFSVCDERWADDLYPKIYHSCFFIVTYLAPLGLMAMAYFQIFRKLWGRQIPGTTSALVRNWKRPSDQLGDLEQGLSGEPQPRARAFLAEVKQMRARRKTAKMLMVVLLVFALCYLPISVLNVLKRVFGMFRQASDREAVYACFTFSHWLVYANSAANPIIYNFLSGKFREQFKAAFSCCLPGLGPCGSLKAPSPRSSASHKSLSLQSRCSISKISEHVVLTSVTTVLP
Nature of the experiment: IP accumulation assay, OX1R A127T.
Description: as §1

Experiment [3] has as its target T3, OX2R F346A (Homo sapiens, UniProt O43614, F346A).
T3 construct: expressed in transfected cells; host or cells: CHO-K1 stably expressing EA β-arrestin2
As to the kind of experiment: β-arrestin PathHunter assay, OX2R F346A. The note with it: β-arrestin recruitment. As to the method:
β-Arrestin recruitment activity was measured by using the PathHunter system (DiscoveRX) according to the manufacturer’s instruction. Receptor constructs used were the full-length wild-type (or mutant) human OX2R sequences cloned into pCMV-ProLink (DiscoveRX). CHO-K1 cells stably expressing EA β-arrestin2 (DiscoveRX) were plated on 384 well white plates (Thermo Fisher) at 4000 cells/well in HamF12 (Wako Pure Chemical Industries) supplemented with 10% fetal bovine serum (Corning) and penicillin-streptomycin (Wako Pure Chemical Industries) and incubated overnight at 37 °C under 5% CO2. Cells were transfected with plasmids encoding wild type or each mutant ProLink-tagged human OX2R using FuGENE HD (Promega). […] Detection reagent was added and incubated for 1 h at room temperature. Luminescent signal was detected using an EnVision plate reader (PerkinElmer). β-arrestin assays on different constructs were performed in two or three independent experiments (each done in quadruplicate). Dose response curves (shown in Supplementary Fig. 8) were fitted to the three-parameter model ‘log(agonist) vs response’ in GraphPad Prism to determine pEC50 values.
Background: Recruitment of arrestin is a read-out of receptor activation apart from second messengers.

T3 sequence (O43614 whole entry F346A): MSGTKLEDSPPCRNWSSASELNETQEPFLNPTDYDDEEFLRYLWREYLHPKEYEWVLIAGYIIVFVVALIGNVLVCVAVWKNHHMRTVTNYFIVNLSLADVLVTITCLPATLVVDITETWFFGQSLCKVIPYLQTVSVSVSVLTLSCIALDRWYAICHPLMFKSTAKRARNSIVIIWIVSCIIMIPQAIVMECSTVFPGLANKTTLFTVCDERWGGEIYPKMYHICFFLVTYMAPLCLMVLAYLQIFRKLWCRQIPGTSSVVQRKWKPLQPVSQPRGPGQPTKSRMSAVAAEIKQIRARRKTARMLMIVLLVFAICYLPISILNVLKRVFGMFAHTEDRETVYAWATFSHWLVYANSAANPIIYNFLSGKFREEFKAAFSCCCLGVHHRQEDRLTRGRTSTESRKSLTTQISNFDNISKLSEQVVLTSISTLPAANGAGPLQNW

Turning to `COC(=O)N1CCC[C@H](NS(C)(=O)=O)[C@@H]1CO[C@H]1CC[C@@H](c2ccccc2)CC1` [TAK-925, methyl (2R,3S)−3-[(methylsulfonyl)amino]−2-{[(cis−4-phenylcyclohexyl)oxy]methyl}piperidine-1-carboxylate], the EC50 is 3.98 µM in experiment [1] (pEC50 ± SEM, read-out: pEC50 (converted)); 3.6 µM in experiment [1] (read-out: EC50); 4.7 µM in experiment [2] (IP accumulation); 0.35 µM in experiment [3]. The “% IP accumulation” value is 75.61% and 80.32% and 68.16% in experiment [1] (TAK-925 conc (log, M) -4.00); 79.41% and 78.58% and 59.24% in experiment [1] (TAK-925 conc (log, M) -4.48); 63.00% and 60.94% and 53.37% in experiment [1] (TAK-925 conc (log, M) -4.95); 45.74% and 44.90% and 36.03% in experiment [1] (TAK-925 conc (log, M) -5.43); 30.51% and 19.14% and 15.90% in experiment [1] (TAK-925 conc (log, M) -5.91); 18.69% and 18.10% and 13.23% in experiment [1] (TAK-925 conc (log, M) -6.39). In addition, the “% IP accumulation” value in experiment [1] (TAK-925 conc (log, M) -8.29) was 6.54% and 0.00%; in experiment [1] (TAK-925 conc (log, M) -8.77), 0.00% and 2.28% and 1.85%; in experiment [2] (TAK-925 conc (log, M) -8.77), 0.00%. Moreover, the values for the Emax in experiment [1] (relative to OX2R WT/TAK-925) and in experiment [2] (relative to OX1R S103T/A127T/TAK-925) were 78 and 100, respectively. The activation at 100 µM in experiment [2] (0.75 h, TAK-925 conc (log, M) -4.00) worked out at 109%. In experiment [2] (0.75 h, TAK-925 conc (log, M) -4.48), this compound displayed an activation at 33.1 µM of 92.5%. In experiment [2] (0.75 h, TAK-925 conc (log, M) -4.95), this compound yielded an activation at 11.2 µM of 78.5%. Moreover, in experiment [2] (0.75 h, TAK-925 conc (log, M) -5.43), the activation at 3.72 µM was 56%. In experiment [2] (0.75 h, TAK-925 conc (log, M) -5.91), this compound came in with an activation at 1.23 µM of 27.7%. For the same compound, the activation at 0.407 µM in experiment [2] (0.75 h, TAK-925 conc (log, M) -6.39) came out at 18.7%. The compound further had an activation at 0.0457 µM in experiment [2] (0.75 h, TAK-925 conc (log, M) -7.34) of 12%. In experiment [2] (0.75 h, TAK-925 conc (log, M) -7.82), this compound yielded an activation at 0.0151 µM of 13.1%. In experiment [2] (0.75 h, TAK-925 conc (log, M) -8.77), this compound registered an activation at 0.0017 µM of 0%.
